Each compound was assayed against NR2B-subtype NMDA receptors (Rattus norvegicus (Rat), UniProt P35439+Q00960) (assay: Radioligand binding assay (3H Ro 25-6981 competition, forebrain membranes)). Settings: 3H Ro 25-6981 (4 nM), read-out: NR2B Binding Ki.
Experimental: Radioligand Binding Assay. […] Buchy D; Klingelschmidt A; Messer J; Bleuel Z; Kemp J A; Richards J G. […] Thawed brains were homogenized using a Dounce homogenizer and centrifuged at 48000×g for 20 min. The pellet was resuspended in cold buffer and homogenized again using a Dounce homogenizer. […] After incubation for 1 hr at room temperature, the membrane bound radioligand was harvested on to GF/B filter plates (treated with 0.5% PEI for 1 hr at room temperature). The filter plates were dried at 50° C. for 20 mins, incubated with microscint 20 for 10 minutes and finally, the counts were read on TopCount (Perkin Elmer). […] CPM values were converted to % inhibition and the concentration response curves were plotted using custom made software. Each experiment was repeated at least twice to obtain the final binding Ki values for experimental compounds.

NR2B-subtype NMDA receptors, sequence (Q00960 27-1482, other chains not shown): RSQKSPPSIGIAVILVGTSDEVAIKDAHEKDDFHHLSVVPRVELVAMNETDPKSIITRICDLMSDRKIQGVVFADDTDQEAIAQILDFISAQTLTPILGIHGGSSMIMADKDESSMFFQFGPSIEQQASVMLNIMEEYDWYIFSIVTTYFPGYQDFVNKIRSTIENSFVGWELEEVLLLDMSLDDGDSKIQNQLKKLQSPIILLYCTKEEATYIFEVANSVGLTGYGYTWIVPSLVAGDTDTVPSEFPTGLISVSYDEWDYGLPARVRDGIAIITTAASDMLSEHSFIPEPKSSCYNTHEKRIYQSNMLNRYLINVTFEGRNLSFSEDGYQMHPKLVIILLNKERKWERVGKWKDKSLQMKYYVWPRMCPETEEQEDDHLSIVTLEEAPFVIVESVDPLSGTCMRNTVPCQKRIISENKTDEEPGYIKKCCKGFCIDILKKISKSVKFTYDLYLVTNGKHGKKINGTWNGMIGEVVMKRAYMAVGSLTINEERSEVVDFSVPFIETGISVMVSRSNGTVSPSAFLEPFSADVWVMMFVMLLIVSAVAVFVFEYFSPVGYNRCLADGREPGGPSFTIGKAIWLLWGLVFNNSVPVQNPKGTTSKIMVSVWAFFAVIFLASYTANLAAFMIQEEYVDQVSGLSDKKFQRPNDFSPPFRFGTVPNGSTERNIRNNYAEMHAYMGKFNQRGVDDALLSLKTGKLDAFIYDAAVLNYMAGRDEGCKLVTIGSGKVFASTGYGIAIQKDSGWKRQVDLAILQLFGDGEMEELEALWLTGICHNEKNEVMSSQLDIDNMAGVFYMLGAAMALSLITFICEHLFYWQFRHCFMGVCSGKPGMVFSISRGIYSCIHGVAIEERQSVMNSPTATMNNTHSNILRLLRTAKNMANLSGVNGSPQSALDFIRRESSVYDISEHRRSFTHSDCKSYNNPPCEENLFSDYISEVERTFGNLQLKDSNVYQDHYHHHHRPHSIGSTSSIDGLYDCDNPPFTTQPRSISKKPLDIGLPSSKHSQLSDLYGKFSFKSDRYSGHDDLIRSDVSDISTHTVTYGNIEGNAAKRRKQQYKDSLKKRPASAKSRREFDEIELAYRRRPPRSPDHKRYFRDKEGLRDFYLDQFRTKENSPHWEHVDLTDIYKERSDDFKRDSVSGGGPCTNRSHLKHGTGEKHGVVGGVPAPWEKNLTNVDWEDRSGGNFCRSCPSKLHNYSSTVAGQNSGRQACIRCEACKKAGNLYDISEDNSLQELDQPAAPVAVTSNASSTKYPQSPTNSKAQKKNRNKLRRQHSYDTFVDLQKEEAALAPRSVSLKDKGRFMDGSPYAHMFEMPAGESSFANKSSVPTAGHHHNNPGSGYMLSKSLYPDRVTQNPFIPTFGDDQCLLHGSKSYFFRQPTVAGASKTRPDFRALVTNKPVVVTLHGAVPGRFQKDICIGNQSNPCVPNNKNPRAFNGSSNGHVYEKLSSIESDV

| Compound | Ki |
| --- | --- |
| C[C@@H](c1ccc(F)cc1)N1CC[C@H](N2CC[C@H](c3ccc(O)cc3)[C@@H](F)C2)C1=O [Example 50, P-1, (S)-3-((3R,4R)-3-Fluoro-4-(4-hydroxyphenyl)piperidin-1-yl)-1-((S)-1-(4-fluorophenyl)-ethyl)pyrrolidin-2-one] | ≥ 5000 nM |
| C[C@@H](c1ccc(F)cc1)N1CC[C@@H](N2CC[C@H](c3ccc(O)cc3)[C@@H](F)C2)C1=O [Example 50, P-2, (R)-3-((3R,4R)-3-fluoro-4-(4-hydroxyphenyl)piperidin-1-yl)-1-((S)-1-(4-fluorophenyl)ethyl)pyrrolidin-2-one] | 890 nM |
| C[C@@H](c1ccc(F)cc1)N1CC[C@H](N2CC[C@@H](c3ccc(O)cc3)[C@H](F)C2)C1=O [Example 50, P-3, (S)-3-((3S,4S)-3-Fluoro-4-(4-hydroxyphenyl)piperidin-1-yl)-1-((S)-1-(4-fluorophenyl)ethyl)pyrrolidin-2-one] | ≥ 5000 nM |
| C[C@@H](c1ccc(F)cc1)N1CC[C@@H](N2CC[C@@H](c3ccc(O)cc3)[C@H](F)C2)C1=O [Example 50, P-4, (R)-3-((3S,4S)-3-fluoro-4-(4-hydroxyphenyl)piperidin-1-yl)-1-((S)-1-(4-fluorophenyl)-ethyl)pyrrolidin-2-one] | 1300 nM |
| O=C1[C@@H](N2CC[C@@H](c3ccc(O)cc3)[C@H](F)C2)CCN1Cc1ccccc1 [Example 57, (S)-1-Benzyl-3-((3S,4S)-3-fluoro-4-(4-hydroxyphenyl)piperidin-1-yl)pyrrolidin-2-one] | 490 nM |
| O=C1[C@H](N2CC[C@@H](c3ccc(O)cc3)[C@H](F)C2)CCN1Cc1ccccc1 [Example 58, (R)-1-Benzyl-3-((3S,4S)-3-fluoro-4-(4-hydroxyphenyl)piperidin-1-yl)pyrrolidin-2-one] | 8.7 nM |
| Cc1ccccc1CN1CCC(N2CC[C@@H](c3ccc(O)cc3)[C@H](F)C2)C1=O (stereo partly drawn) [Example 59, 3-((3S,4S)-3-Fluoro-4-(4-hydroxyphenyl)piperidin-1-yl)-1-(2-methylbenzyl)pyrrolidin-2-one] | 81 nM |
| Cc1cccc(CN2CCC(N3CC[C@@H](c4ccc(O)cc4)[C@H](F)C3)C2=O)c1 (stereo partly drawn) [Example 60, 3-((3S,4S)-3-Fluoro-4-(4-hydroxyphenyl)piperidin-1-yl)-1-(3-methylbenzyl)pyrrolidin-2-one] | 110 nM |
| O=C1C(N2CC[C@@H](c3ccc(O)cc3)[C@H](F)C2)CCN1Cc1ccc(OC(F)F)cc1 (stereo partly drawn) [Example 61, 1-(4-(Difluoromethoxy)benzyl)-3-((3S,4S)-3-fluoro-4-(4-hydroxyphenyl)piperidin-1-yl)pyrrolidin-2-one] | 46 nM |
| O=C1[C@@H](N2CC[C@@H](c3ccc(O)cc3)[C@H](F)C2)CCN1c1ccc(OC(F)F)c(Cl)c1 [Example 62, (S)-1-(3-Chloro-4-(difluoromethoxy)phenyl)-3-((3S,4S)-3-fluoro-4-(4-hydroxyphenyl)-piperidin-1-yl)pyrrolidin-2-one] | 6.7 nM |
| O=C1[C@H](N2CC[C@@H](c3ccc(O)cc3)[C@H](F)C2)CCN1c1ccc(OC(F)F)c(Cl)c1 [Example 63, (R)-1-(3-Chloro-4-(difluoromethoxy)phenyl)-3-((3S,4S)-3-fluoro-4-(4-hydroxyphenyl)-piperidin-1-yl)pyrrolidin-2-one] | 10 nM |
| O=C1[C@@H](N2CC[C@@H](c3ccc(O)cc3)[C@H](F)C2)CCN1Cc1ccc(Cl)cc1 [Example 64, (S)-1-(4-Chlorobenzyl)-3-((3S,4S)-3-fluoro-4-(4-hydroxyphenyl)piperidin-1-yl)pyrrolidin-2-one] | 490 nM |
| O=C1[C@H](N2CC[C@@H](c3ccc(O)cc3)[C@H](F)C2)CCN1Cc1ccc(Cl)cc1 [Example 65, (R)-1-(4-Chlorobenzyl)-3-((3S,4S)-3-fluoro-4-(4-hydroxyphenyl)piperidin-1-yl)pyrrolidin-2-one] | 3.6 nM |
| O=C1[C@@H](N2CC[C@@H](c3ccc(O)cc3)[C@H](F)C2)CCN1Cc1ccc(Cl)c(F)c1 [Example 66, (S)-1-(4-Chloro-3-fluorobenzyl)-3-((3S,4S)-3-fluoro-4-(4-hydroxyphenyl)piperidin-1-yl)pyrrolidin-2-one] | 1500 nM |

The next lines start with the values.

| Ki | Compound |
| --- | --- |
| 6.5 nM | O=C1[C@H](N2CC[C@@H](c3ccc(O)cc3)[C@H](F)C2)CCN1Cc1ccc(Cl)c(F)c1 [Example 67, (R)-1-(4-Chloro-3-fluorobenzyl)-3-((3S,4S)-3-fluoro-4-(4-hydroxyphenyl)piperidin-1-yl)pyrrolidin-2-one] |
| 710 nM | C[C@@H](c1ccccc1)N1CCC(N2CC[C@@H](c3ccc(O)cc3)[C@H](F)C2)C1=O (stereo partly drawn) [Example 68, 3-((3S,4S)-3-Fluoro-4-(4-hydroxyphenyl)piperidin-1-yl)-1-(1-phenylethyl)pyrrolidin-2-one] |
| 34 nM | O=C1C(N2CC[C@@H](c3ccc(O)cc3)[C@H](F)C2)CCN1Cc1ccc(F)c(F)c1 (stereo partly drawn) [Example 69, 1-(3,4-Difluorobenzyl)-3-((3S,4S)-3-fluoro-4-(4-hydroxyphenyl)piperidin-1-yl)pyrrolidin-2-one] |
| 180 nM | O=C1C(N2CC[C@@H](c3ccc(O)cc3)[C@H](F)C2)CCN1Cc1ccc(Cl)c(Cl)c1 (stereo partly drawn) [Example 70, 1-(3,4-Dichlorobenzyl)-3-((3S,4S)-3-fluoro-4-(4-hydroxyphenyl)piperidin-1-yl)pyrrolidin-2-one] |
| 560 nM | O=C1[C@@H](N2CC[C@@H](c3ccc(O)cc3)[C@H](F)C2)CCN1Cc1ccc(C(F)(F)F)cc1 [Example 71, (S)-3-((3S,4S)-3-Fluoro-4-(4-hydroxyphenyl)piperidin-1-yl)-1-(4-(trifluoromethyl)-benzyl)pyrrolidin-2-one] |
| 6 nM | O=C1[C@H](N2CC[C@@H](c3ccc(O)cc3)[C@H](F)C2)CCN1Cc1ccc(C(F)(F)F)cc1 [Example 72, (R)-3-((3S,4S)-3-Fluoro-4-(4-hydroxyphenyl)piperidin-1-yl)-1-(4-(trifluoromethyl)benzyl)-pyrrolidin-2-one] |
| 330 nM | O=C1C(N2CC[C@@H](c3ccc(O)cc3)[C@H](F)C2)CCN1Cc1ccc(F)c(Cl)c1 (stereo partly drawn) [Example 73, 1-(3-Chloro-4-fluorobenzyl)-3-((3S,4S)-3-fluoro-4-(4-hydroxyphenyl)piperidin-1-yl)pyrrolidin-2-one] |
| 680 nM | O=C1[C@@H](N2CC[C@H](c3ccc(O)cc3)[C@@H](F)C2)CCN1Cc1ccccc1 [Example 74, (S)-1-Benzyl-3-((3R,4R)-3-fluoro-4-(4-hydroxyphenyl)piperidin-1-yl)pyrrolidin-2-one] |
| 8 nM | O=C1[C@H](N2CC[C@H](c3ccc(O)cc3)[C@@H](F)C2)CCN1Cc1ccccc1 [Example 75, (R)-1-Benzyl-3-((3R,4R)-3-fluoro-4-(4-hydroxyphenyl)-piperidin-1-yl)pyrrolidin-2-one] |
| 33 nM | Cc1ccccc1CN1CCC(N2CC[C@H](c3ccc(O)cc3)[C@@H](F)C2)C1=O (stereo partly drawn) [Example 76, 3-((3R,4R)-3-Fluoro-4-(4-hydroxyphenyl)piperidin-1-yl)-1-(2-methylbenzyl)pyrrolidin-2-one] |
| 27 nM | Cc1cccc(CN2CCC(N3CC[C@H](c4ccc(O)cc4)[C@@H](F)C3)C2=O)c1 (stereo partly drawn) [Example 77, 3-((3R,4R)-3-Fluoro-4-(4-hydroxyphenyl)piperidin-1-yl)-1-(3-methylbenzyl)pyrrolidin-2-one] |

— patent publication US9221796B2, “Selective NR2B antagonists” (BRISTOL-MYERS SQUIBB COMPANY, priority 2014, dated 2015)
